According to patent US7939288B2, “Method for differentiating between factor XIII deficiency states and fibrinogen deficiency states by means of thrombelastographic techniques” (CSL Behring GmbH, priority 2005, dated 2011):

Target: T1, factor XIII (Homo sapiens, UniProt P00488)
T1 construct: The test batch contained: 200 μl of plasma; from tissue; host or cells: standard human plasma
T1 sequence (P00488 39-732 limits assumed): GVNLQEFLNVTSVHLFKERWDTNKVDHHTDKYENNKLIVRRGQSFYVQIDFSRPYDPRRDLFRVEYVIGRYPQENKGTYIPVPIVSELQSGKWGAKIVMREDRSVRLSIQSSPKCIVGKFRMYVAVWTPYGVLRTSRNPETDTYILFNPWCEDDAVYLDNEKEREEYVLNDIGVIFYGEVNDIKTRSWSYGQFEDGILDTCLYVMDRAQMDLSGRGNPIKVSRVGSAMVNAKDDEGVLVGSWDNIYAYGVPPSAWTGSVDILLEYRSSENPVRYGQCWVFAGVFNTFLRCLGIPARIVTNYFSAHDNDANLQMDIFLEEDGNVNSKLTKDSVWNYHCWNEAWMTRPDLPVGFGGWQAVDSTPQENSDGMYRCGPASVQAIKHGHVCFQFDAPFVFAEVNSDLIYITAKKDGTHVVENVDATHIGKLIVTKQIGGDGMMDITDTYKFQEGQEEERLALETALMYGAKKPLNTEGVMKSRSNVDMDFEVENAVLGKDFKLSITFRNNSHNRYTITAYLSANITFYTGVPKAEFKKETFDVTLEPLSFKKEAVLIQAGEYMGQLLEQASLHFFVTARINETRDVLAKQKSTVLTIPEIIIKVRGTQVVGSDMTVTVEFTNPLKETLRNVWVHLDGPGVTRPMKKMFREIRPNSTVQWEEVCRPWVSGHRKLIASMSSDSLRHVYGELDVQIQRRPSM
Test: TEG of standard human plasma with low molecular weight factor XIII inhibitors, clotting started by tissue factor reagent (Thromborel S)
Assay type: biochemical
Protocol: For the quantitative determination of the influence of factor XIII, standard human plasma with or without addition of low molecular weight factor XIII inhibitors was analysed by means of TEG. The clotting reaction was started or accelerated by addition of a tissue factor reagent. The test batch contained: 200 μl of plasma, 30 μl of NaCl soln (control) or inhibitor solution in different dilutions, 50 μl of tissue factor reagent. (Thromborel S, Dade Behring) and 20 μl of calcium chloride solution (200 mmol/l). The reagents were pipetted into the cup at 37° C. and the TEG measurement was started with Haemoscope apparatuses. Alternatively, the calcium chloride can also be already added to the tissue factor reagent and the reaction thus started. The measurement parameters of reaction time (R), alpha angle, maximum amplitude (MA) and time to achieve the maximum amplitude (MA) were determined and evaluated. […] The investigations carried out here with plasma are in principle also applicable to whole blood.

[1] = concentration in the test 0.033 μg/ml, Table 3
[2] = concentration in the test 0.10 μg/ml, Table 3
[3] = concentration in the test 0.33 μg/ml, Table 3
[4] = concentration in the test 1.00 μg/ml, Table 3
[5] = concentration in the test 3.33 μg/ml, Table 3
[6] = concentration in the test 1.07 μg/ml, standard human plasma
[7] = concentration in the test 1.071 μg/ml (so in the source), standard human plasma
[8] = concentration in the test 3.21 μg/ml, standard human plasma
[9] = concentration in the test 3.214 μg/ml (so in the source), standard human plasma
[10] = concentration in the test 10.7 μg/ml, standard human plasma
[11] = concentration in the test 32.1 μg/ml, standard human plasma
[12] = concentration in the test 107 μg/ml, standard human plasma
[13] = concentration in the test 321 μg/ml, standard human plasma
[14] = concentration in the test 0.32 μg/ml, standard human plasma
[15] = concentration in the test 107 μg/ml, standard human plasma, 107 µg/ml in the test
[16] = concentration in the test 321 μg/ml, standard human plasma, 321 µg/ml in the test
[17] = concentration in the test 536 μg/ml, standard human plasma, 536 µg/ml in the test

Compound: CC(=O)CSc1n(C)c(C)c(C)[n+]1C.[Cl-] [1,3,4,5-tetramethyl-2-[(2-oxopropyl)thio]imidazolium chloride]
- MA (concentration in the test 0.033 μg/ml): 21.5 mm
- Angle [1]: 79.6 °
- R [1]: 22.5 s
- TMA [1]: 177.5 s
- MA (concentration in the test 0.10 μg/ml): 18.5 mm
- Angle [2]: 79.0 °
- R [2]: 22.5 s
- TMA [2]: 140.0 s
- MA (concentration in the test 0.33 μg/ml): 14.9 mm
- Angle [3]: 77.0 °
- R [3]: 22.5 s
- TMA [3]: 77.5 s
- MA (concentration in the test 1.00 μg/ml): 13.1 mm
- Angle [4]: 75.4 °
- R [4]: 22.5 s
- TMA [4]: 77.5 s
- MA (concentration in the test 3.33 μg/ml): 12.4 mm
- Angle [5]: 74.0 °
- R [5]: 22.5 s
- TMA [5]: 77.5 s

Compound: NCCc1c[nH]cn1 [Histamine]
- Angle [6]: 73.4 °
- MA [6]: 17.8 mm
- R [6]: 20.0 s
- TMA [6]: 592.5 s
- Angle [7]: 70.3 °
- MA [7]: 14.0 mm
- R [7]: 15.0 s
- TMA [7]: 492.5 s
- Angle [8]: 75.0 °
- MA [8]: 17.9 mm
- R [8]: 22.5 s
- TMA [8]: 527.5 s
- Angle [9]: 71.9 °
- MA [9]: 13.0 mm
- R [9]: 25.0 s
- TMA [9]: 182.5 s
- Angle [10]: 74.8 °
- MA [10]: 19.2 mm
- R [10]: 20.0 s
- TMA [10]: 622.5 s
- Angle [11]: 73.9 °
- MA [11]: 17.2 mm
- R [11]: 22.0 s
- TMA [11]: 472.5 s
- Angle [12]: 73.5 °
- MA [12]: 16.9 mm
- R [12]: 17.5 s
- TMA [12]: 462.5 s
- Angle [13]: 72.7 °
- MA [13]: 15.5 mm
- R [13]: 20.0 s
- TMA [13]: 430.0 s

Compound: CN(C)c1cccc2c(S(=O)(=O)NCCCCCN)cccc12 [Monodansylcadaverine]
- Angle [14]: 74.0 °
- MA [14]: 18.1 mm
- R [14]: 20.0 s
- TMA [14]: 655.0 s
- Angle [6]: 74.9 °
- MA [6]: 18.4 mm
- R [6]: 22.5 s
- TMA [6]: 610.0 s
- Angle [8]: 74.7 °
- MA [8]: 19.1 mm
- R [8]: 20.0 s
- TMA [8]: 657.5 s
- Angle [10]: 74.4 °
- MA [10]: 18.4 mm
- R [10]: 25.0 s
- TMA [10]: 560.0 s
- Angle [11]: 74.4 °
- MA [11]: 17.3 mm
- R [11]: 17.5 s
- TMA [11]: 562.5 s
- Angle [15]: 76.9 °
- MA [15]: 18.7 mm
- R [15]: 32.5 s
- TMA [15]: 237.5 s
- Angle [16]: 71.0 °
- MA [16]: 15.1 mm
- R [16]: 20.0 s
- TMA [16]: 490.0 s
- Angle [17]: 70.3 °
- MA [17]: 13.3 mm
- R [17]: 27.5 s
- TMA [17]: 370.0 s

Compound: NCCCCN [Putrescine]
- Angle [6]: 73.1 °
- MA [6]: 17.2 mm
- R [6]: 22.5 s
- TMA [6]: 452.5 s
- Angle [7]: 69.5 °
- MA [7]: 13.6 mm
- R [7]: 25 s
- TMA [7]: 405.0 s
- Angle [8]: 73.7 °
- MA [8]: 15.9 mm
- R [8]: 17.5 s
- TMA [8]: 277.5 s
- Angle [9]: 72.6 °
- MA [9]: 13.9 mm
- R [9]: 32.5 s
- TMA [9]: 327.5 s
- Angle [10]: 73.4 °
- MA [10]: 18.7 mm
- R [10]: 20.0 s
- TMA [10]: 672.5 s
- Angle [11]: 73.0 °
- MA [11]: 16.9 mm
- R [11]: 25 s
- TMA [11]: 585.0 s
- Angle [12]: 73.0 °
- MA [12]: 16.5 mm
- R [12]: 15 s
- TMA [12]: 505.0 s
- Angle [13]: 72.8 °
- MA [13]: 15.8 mm
- R [13]: 20 s
- TMA [13]: 400.0 s
